Reference: publication PMC3268748, “A novel cold-active β-D-galactosidase from the Paracoccus sp. 32d - gene cloning, purification and characterization” (Microbial Cell Factories, 2011)
Like-named read-outs stand apart in the source and are kept apart here.

Molecular target: T1, BgaL; Paracoccus sp. 32d β-D-galactosidase (Paracoccus sp. 32d, UniProt D1LZK0)
T1 construct: E. coli LMG194, pBAD/Myc-His A with native stop codon (no tag), ion exchange purified; homodimer 161 kDa; GH2
T1 sequence (D1LZK0 1-731): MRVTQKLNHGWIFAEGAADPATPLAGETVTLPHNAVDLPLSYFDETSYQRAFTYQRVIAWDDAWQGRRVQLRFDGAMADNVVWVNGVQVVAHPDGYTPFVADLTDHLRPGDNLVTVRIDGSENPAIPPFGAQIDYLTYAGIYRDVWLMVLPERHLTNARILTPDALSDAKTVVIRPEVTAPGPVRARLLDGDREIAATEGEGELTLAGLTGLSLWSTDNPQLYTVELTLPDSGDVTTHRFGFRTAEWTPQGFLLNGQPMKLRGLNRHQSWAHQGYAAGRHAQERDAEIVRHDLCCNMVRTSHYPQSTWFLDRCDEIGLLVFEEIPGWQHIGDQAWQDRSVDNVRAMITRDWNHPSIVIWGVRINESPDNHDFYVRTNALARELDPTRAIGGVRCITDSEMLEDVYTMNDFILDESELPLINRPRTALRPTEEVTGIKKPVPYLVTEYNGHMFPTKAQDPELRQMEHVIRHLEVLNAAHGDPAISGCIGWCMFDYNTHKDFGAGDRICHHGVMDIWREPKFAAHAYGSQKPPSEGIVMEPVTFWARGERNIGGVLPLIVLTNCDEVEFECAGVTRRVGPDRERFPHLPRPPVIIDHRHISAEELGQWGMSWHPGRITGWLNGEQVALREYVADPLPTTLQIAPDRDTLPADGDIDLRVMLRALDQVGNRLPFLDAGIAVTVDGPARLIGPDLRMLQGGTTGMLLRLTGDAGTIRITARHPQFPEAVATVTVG
Assay: relative activity with added sugar
Format: biochemical

Structure (SMILES) | activity at 100000 µM (read-out: Relative activity (%) / Galactose) | activity at 100000 µM (read-out: Relative activity (%) / Glucose)
OC[C@H]1OC(O)[C@H](O)[C@@H](O)[C@H]1O (some centres unmarked) [galactose] | 52 ± 1% | –
OC[C@H]1OC(O)[C@H](O)[C@@H](O)[C@@H]1O (some centres unmarked) [glucose] | – | 38 ± 2%
